Results published in ChEMBL document CHEMBL1201862, “PubChem BioAssay data set” (2004).
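Tested at 5 concentrations; 48 h exposure; 96-well plates; endpoints linearly interpolated, else capped at highest concentration. Here, GI50 denotes the concentration required for 50% inhibition of growth.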 The source made the active and inactive calls. Cut-off read from the data, not from the text of the source: active = GI50 up to about 1.1 µM and inactive = higher. Where a SMILES comes first, the peptide text is derived from it. Bridges are numbered along the chain shown (N, C = ends). [ ]: non-standard residue; d: D form. The star is where a group is joined. ξ: configuration not given here. PhAc = O=C(Cc1ccccc1)*; ξP = O=C(O)C1CCCN1

Assays:
Experiment in all cases: NCI tumour cell line growth inhibition, 48 h
[1] = test system: NCI/ADR-RES
[2] = test system: K562
[3] = test system: SK-MEL-2
[4] = test system: MDA-MB-231
[5] = test system: NCI-H226
[6] = test system: ACHN
[7] = test system: Malme-3M
[8] = test system: HCT-116
[9] = test system: SN12C
[10] = test system: HCC 2998
[11] = test system: SW-620
[12] = test system: A498
[13] = test system: OVCAR-3
[14] = test system: NCI-H23
[15] = test system: UO-31
[16] = test system: KM12
[17] = test system: CCRF-CEM
[18] = test system: RXF 393

Row | Structure (SMILES) | GI50 [1] | GI50 [2] | GI50 [3] | GI50 [4] | GI50 [5] | GI50 [6] | GI50 [7] | GI50 [8] | GI50 [9] | GI50 [10] | GI50 [11] | GI50 [12] | GI50 [13] | GI50 [14] | GI50 [15] | GI50 [16] | GI50 [17] | GI50 [18]
1 | Oc1ccccc1C(Sc1nc2ccccc2s1)Sc1nc2ccccc2s1 | 57.8 µM (inactive) | 56.2 µM (inactive) | > 100 µM (inactive) | > 100 µM (inactive) | 36.3 µM (inactive) | > 100 µM (inactive) | 28.4 µM (inactive) | > 100 µM (inactive) | > 100 µM (inactive) | > 100 µM (inactive) | > 100 µM (inactive) | > 100 µM (inactive) | 31.3 µM (inactive) | 58.7 µM (inactive) | 6.55 µM (inactive) | 89.1 µM (inactive) | 26.5 µM (inactive) | > 100 µM (inactive)
2 | N#Cc1c(-c2ccc(Cl)cc2)cc(-c2ccc(Nc3ccnc4cc(Cl)ccc34)cc2)nc1N | > 100 µM (inactive) | > 100 µM (inactive) | > 100 µM (inactive) | > 100 µM (inactive) | > 100 µM (inactive) | > 100 µM (inactive) | > 100 µM (inactive) | > 100 µM (inactive) | – | > 100 µM (inactive) | > 100 µM (inactive) | > 100 µM (inactive) | > 100 µM (inactive) | > 100 µM (inactive) | > 100 µM (inactive) | > 100 µM (inactive) | – | > 100 µM (inactive)
3 | COCC(=O)OC1CCn2c1nc1c2C(=O)C(C)=C(NC(C)=O)C1=N (stereo unspecified) | 3.99 µM (inactive) | 2.63 µM (inactive) | 2.15 µM (inactive) | 3.27 µM (inactive) | 18.5 µM (inactive) | 7.71 µM (inactive) | 1.38 µM (inactive) | 3.08 µM (inactive) | 3.72 µM (inactive) | 13.7 µM (inactive) | 2.49 µM (inactive) | 18.5 µM (inactive) | 2.03 µM (inactive) | 4.34 µM (inactive) | 11.6 µM (inactive) | 14.2 µM (inactive) | 2.1 µM (inactive) | 2.16 µM (inactive)
4 | C=[N+](CNC(=O)CNC(=O)C(Cc1ccccc1)NC(=O)OC(C)(C)C)C(=O)CNC(=O)C(Cc1ccccc1)NC(=O)OC(C)(C)C (stereo unspecified) | > 100 µM (inactive) | > 100 µM (inactive) | > 100 µM (inactive) | > 100 µM (inactive) | > 100 µM (inactive) | > 100 µM (inactive) | > 100 µM (inactive) | > 100 µM (inactive) | > 100 µM (inactive) | > 100 µM (inactive) | > 100 µM (inactive) | > 100 µM (inactive) | > 100 µM (inactive) | > 100 µM (inactive) | > 100 µM (inactive) | > 100 µM (inactive) | > 100 µM (inactive) | > 100 µM (inactive)
5 | CCCc1nc(Cl)nc(Cl)c1Cl | 0.32 µM (active) | < 0.0343 µM (active) | 0.291 µM (active) | 0.665 µM (active) | 2.35 µM (inactive) | 0.611 µM (active) | 0.453 µM (active) | 0.259 µM (active) | 0.726 µM (active) | 1.08 µM (active) | 0.0675 µM (active) | 2.87 µM (inactive) | 0.129 µM (active) | 0.45 µM (active) | – | 0.543 µM (active) | < 0.0264 µM (active) | 0.256 µM (active)
6 | COC(=O)/C=C1\CCCN1CCc1cc2c(cc1CC#N)OCO2 | 69.8 µM (inactive) | 49.4 µM (inactive) | 38.4 µM (inactive) | 47.9 µM (inactive) | 48.6 µM (inactive) | > 100 µM (inactive) | > 100 µM (inactive) | 41.2 µM (inactive) | 50 µM (inactive) | 28.1 µM (inactive) | 49.7 µM (inactive) | 32.7 µM (inactive) | 22.6 µM (inactive) | 47.2 µM (inactive) | 23.8 µM (inactive) | 30.7 µM (inactive) | 42.5 µM (inactive) | 31.7 µM (inactive)
7 | C=CC[C@]1(C2=NC(C)(C)CO2)c2ccccc2-c2ccccc2[C@H]1C(C)=O | 4 µM (inactive) | 4.91 µM (inactive) | 3.92 µM (inactive) | 14.2 µM (inactive) | 14 µM (inactive) | 12.5 µM (inactive) | 5.57 µM (inactive) | 5.4 µM (inactive) | 15.6 µM (inactive) | 8.11 µM (inactive) | 7.55 µM (inactive) | 7.67 µM (inactive) | 3.13 µM (inactive) | 12.7 µM (inactive) | 14.1 µM (inactive) | 5.73 µM (inactive) | 7.1 µM (inactive) | 3.68 µM (inactive)
8 | COc1cc(-c2cc(=O)c3cc4c(=O)cc(-c5cc(OC)c(OC)c(OC)c5)oc4cc3o2)cc(OC)c1OC | 65.9 µM (inactive) | > 41.9 µM (inactive) | 16.7 µM (inactive) | > 39 µM (inactive) | 12.9 µM (inactive) | 25.1 µM (inactive) | 43.2 µM (inactive) | 30.9 µM (inactive) | 32.4 µM (inactive) | > 100 µM (inactive) | > 100 µM (inactive) | 24.7 µM (inactive) | > 87.1 µM (inactive) | 25.8 µM (inactive) | > 100 µM (inactive) | > 100 µM (inactive) | > 100 µM (inactive) | 7.98 µM (inactive)
9 | Cc1ccc(/N=N/c2c(C)nn(C(=O)CC(=O)Nc3ccc(Cl)cc3)c2C)cc1C | > 100 µM (inactive) | – | 77.8 µM (inactive) | 24.3 µM (inactive) | > 100 µM (inactive) | 5.79 µM (inactive) | 85.5 µM (inactive) | 49.2 µM (inactive) | > 100 µM (inactive) | > 100 µM (inactive) | > 100 µM (inactive) | 70.1 µM (inactive) | > 100 µM (inactive) | > 100 µM (inactive) | 37.5 µM (inactive) | > 100 µM (inactive) | 29.1 µM (inactive) | 20.7 µM (inactive)
10 | C=C1c2nc3ccccc3n2C=C(c2ccc(C)cc2)N1c1ccccc1 | 1.79 µM (inactive) | 1.11 µM (active) | 4.49 µM (inactive) | 4.92 µM (inactive) | 2.43 µM (inactive) | 15.1 µM (inactive) | 2.62 µM (inactive) | 2.9 µM (inactive) | 6.22 µM (inactive) | 2.26 µM (inactive) | 1.67 µM (inactive) | 4.53 µM (inactive) | 2.38 µM (inactive) | 4.02 µM (inactive) | 9.62 µM (inactive) | 1.1 µM (active) | 3.3 µM (inactive) | 3.36 µM (inactive)
11 | CC1OC(OC2C(OC3CCC4(C)C(CCC5(C)C4CC=C4C6CC(C)(C)CCC6(C(=O)O)CCC45C)C3(C)CO)OCC(O)C2O)C(O)C(O)C1O (stereo unspecified) | 20.9 µM (inactive) | 11.6 µM (inactive) | 17.7 µM (inactive) | 17.9 µM (inactive) | 21.2 µM (inactive) | 19 µM (inactive) | 19.3 µM (inactive) | 7.4 µM (inactive) | 21.1 µM (inactive) | 13.4 µM (inactive) | 11.7 µM (inactive) | 14.2 µM (inactive) | 27.3 µM (inactive) | 17.7 µM (inactive) | 3.66 µM (inactive) | 7.1 µM (inactive) | 4.68 µM (inactive) | 2.72 µM (inactive)
12 | N#CC(=C1CCCCC1)c1nc2ccccc2o1 | 40 µM (inactive) | 69.8 µM (inactive) | > 100 µM (inactive) | > 100 µM (inactive) | 56.2 µM (inactive) | > 100 µM (inactive) | > 100 µM (inactive) | 55.3 µM (inactive) | > 100 µM (inactive) | 50 µM (inactive) | – | > 100 µM (inactive) | 56.5 µM (inactive) | 66.8 µM (inactive) | 47.2 µM (inactive) | 32 µM (inactive) | 49.1 µM (inactive) | > 100 µM (inactive)
13 | COc1cc(/C=N/n2c(Cc3ccc(Cl)cc3)n[nH]c2=O)cc(OC)c1OC | > 100 µM (inactive) | > 100 µM (inactive) | > 100 µM (inactive) | > 100 µM (inactive) | > 100 µM (inactive) | > 100 µM (inactive) | > 100 µM (inactive) | > 100 µM (inactive) | > 100 µM (inactive) | 37.7 µM (inactive) | > 100 µM (inactive) | > 100 µM (inactive) | 85.9 µM (inactive) | > 100 µM (inactive) | > 100 µM (inactive) | 50 µM (inactive) | > 100 µM (inactive) | > 100 µM (inactive)
14 | O=Cc1c2c(cc3c1CC1(C3)Cc3cc4c(c(C=O)c3C1)CCCC4)CCCC2 | > 31.6 µM (inactive) | 21.1 µM (inactive) | > 10 µM (inactive) | 27.6 µM (inactive) | > 31.6 µM (inactive) | 22.9 µM (inactive) | > 31.6 µM (inactive) | 20.4 µM (inactive) | > 31.6 µM (inactive) | 29.4 µM (inactive) | 89.3 µM (inactive) | > 10 µM (inactive) | > 31.6 µM (inactive) | 27.5 µM (inactive) | – | 21.6 µM (inactive) | – | > 31.6 µM (inactive)
15 | O=C(Cc1ccccc1)N[C@@H]1COC(=O)C2CCCN2C(=O)[C@@H]2CCCN2C1=O (stereo partly specified) (PhAc-[dS]-Pro-[ξP]; ester 1-C) | > 100 µM (inactive) | – | > 100 µM (inactive) | > 100 µM (inactive) | > 100 µM (inactive) | > 100 µM (inactive) | > 100 µM (inactive) | > 100 µM (inactive) | > 100 µM (inactive) | > 100 µM (inactive) | > 100 µM (inactive) | > 100 µM (inactive) | > 100 µM (inactive) | > 100 µM (inactive) | – | > 100 µM (inactive) | > 100 µM (inactive) | > 100 µM (inactive)
